Source: patent US7342137B1, “Cyclohexenone compounds from Antrodia camphorata and application thereof” (Golden Biotechnology Corporation, priority 2007, dated 2008)

Legend:
[1] = test system: human prostate cancer cells, DU-145; test: In vitro survival assay (MTT), prostate cancer cells DU-145; format: cell-based; conditions: 48 hours incubation
Description: (§1) The NCI anti-cancer drug screen model was also adopted to test the anti-cancer effect of the compound isolated from example 1 in the present invention. The isolated compound of 4-hydroxy-2,3-dimethoxy-6-methyl-5(3,7,11-trimethyl-dodeca-2,6,10-trienyl)-cyclohex-2-enone from example 1 was added into the culture media of human prostate cancer cells, LNCaP or DU-145, for tumor cell survival assay.
(§2) The human […] cells, LNCaP and DU-145, were separately cultivated in media containing fetal calf serum for 24 hours. The proliferated cells were washed once with PBS, then treated with 1× trypsin-EDTA and centrifuged at 1200 rpm for 5 minutes. The supernatant was discarded and the cell pellet was resuspended in 10 ml of fresh culture medium by gently shaking. The cells were placed in a 96-well plate. Ethanol extracts of Antrodia camphorata (the control group, total extracts of Antrodia camphorata without purification) or 4-hydroxy-2,3-dimethoxy-6-methyl-5(3,7,11-trimethyl-dodeca-2,6,10-trienyl)-cyclohex-2-enone (the experiment group) were added into each of the 96 wells at the following concentrations: 30, 10, 3, 1, 0.3, 0.1 and 0.03 μg/ml, respectively. The cells were incubated at 37° C. in a 5% CO2 incubator for 48 hours. […] The plates were read on an ELISA reader at wavelength of 570 nm to determine the survival rates.

[2] = test system: human prostate cancer cells, DU-145; test: In vitro Taxol add-on study (MTT), prostate cancer cells DU-145; format: cell-based; conditions: Homo sapiens; DU-145 (0.0043 μg/ml Taxol + formula 2) as printed in Table 6
Description: The experiment was also carried out according to NCI anti-cancer drug screen in vitro model. The human prostate cancer cells, LNCaP and DU-145 were separately cultivated in media containing fetal calf serum for 24 hours. The proliferated cells were washed once with PBS, then treated with 1× trypsin-EDTA and centrifuged at 1200 rpm for 5 minutes. The supernatant was discarded and the cell pellet was resuspended in 10 ml of fresh culture medium by gently shaking. The LNCaP cells were treated with 0.0017 μg/ml of Taxol for 72 hours and DU-145 cells were treated with 0.0043 μg/ml of Taxol for 72 hours before placing in a 96-well plate. 4-hydroxy-2,3-dimethoxy-6-methyl-5(3,7,11-trimethyl-dodeca-2,6,10-trienyl)-cyclohex-2-enone obtained from example 1 were added respectively into each of the 96 wells at the following concentrations: 0 μg/ml (the control group); 30, 10, 3, 1, 0.3, 0.1 and 0.03 μg/ml (the experiment group). The cells were incubated at 37° C. in a 5% CO2 incubator for 48 hours. MTT was added in a concentration of 2.5 mg/ml into each well in dark and reacted for 4 hours, followed by the addition of 100 μl of lysis buffer to stop the reaction. The plates were read on an ELISA reader at wavelength of 570 nm to determine the survival rates.

[3] = test system: Human low density lipoprotein (LDL); test: In vitro antioxidant activity study (Cu2+-induced LDL oxidation, diene formation); format: biochemical; conditions: 40 μg/mL formula 2; for Capacity values: capacity value 1 = 2 μM Trolox, antioxidant ability when larger than 0.5
Description: Human low density lipoprotein (LDL) oxidated with copper ion (Cu^2+) has been widely employed to assess antioxidant activities of samples to be assayed. Antioxidant activity of a sample is determined by the diene contents of LDL after oxidation and expressed in Trolox equivalents by using a standard curve calculated from the water-soluble vitamin E analogue Trolox standards (the antioxidant capacity value of 1 is expressed in terms of 2 μM of Trolox).
The following solutions were prepared firstly: double distilled water (the negative control group), 5 mM sodium phosphate buffer (SPB), 1 μM and 2 μM Trolox solution (the positive control group), and 40 μg/ml 4-hydroxy-2,3-dimethoxy-6-methyl-5(3,7,11-trimethyl-dodeca-2,6,10-trienyl)-cyclohex-2-enone isolated from example 1. The concentration of LDL cholesterol (LDL-C) was determined using enzyme reaction method, which was diluted to 0.1-0.25 mg/ml with 5 mM SPB. One hundred μl of the LDL was added into each well of a 96-well quartz plate, followed by addition of the abovementioned Trolox and the isolated compound from example 1. Standardized oxidizing agent CuSO4 was supplemented to induce oxidation at a final concentration of 5 μM in each 250 μl well. The plate was read on an ELISA reader at wavelength of 232 nm at 37 °C for 12 hours. The sampling time was 15 min.

[4] = test system: human hepatic-cancer cells, Hep 3B; test: In vitro survival assay (MTT), hepatic cancer cells Hep 3B; format: cell-based; conditions: Hep3B, 48 hours incubation
Description: as §1, with “hepatic-cancer” for “prostate cancer”, “Hep 3B” for “LNCaP”, “Hep G2,” for “DU-145,”
as §2, with “cells, Hep 3B” for “cells, LNCaP”, “and Hep G2,” for “and DU-145,”, “purification) were added into each of the 96 wells at the following concentrations: 30, 10, 3, 1, 0.3, 0.1 and 0.03 μg/ml, respectively, while” for “purification) or”, “respectively.” for “respectively. The cells were incubated at 37° C. in a 5% CO2 incubator for 48 hours.”

Compound: COC1=C(OC)C(O)C(C/C=C(\C)CC/C=C(\C)CCC=C(C)C)C(C)C1=O (stereo not shown) [formula 2, 4-hydroxy-2,3-dimethoxy-6-methyl-5(3,7,11-trimethyl-dodeca-2,6,10-trienyl)-cyclohex-2-enone]
- IC50 [1]: 1.81 µg/mL
- IC50 [2]: 0.515 µg/mL
- Tlag ([3]; LDL oxidised with 5 μM CuSO4): 439 min
- Capacity values [3]: 1.30
- Capacity values ([3]; listed as 4-hydroxy-2,3-dimethoxy-6-methyl-5(3,7,11-trimethyl-dodeca-2,6,10-trienyl)-cyclo): 1.3
- ΔTlag ([3]; difference between Tlag and Tlag0 (H2O)): 208 min
- IC50 [4]: 0.005 µg/mL
